The NIST ThermoML archive (doi:10.1016/j.jct.2016.01.012)
± gives the expanded uncertainty stated by the source.

Experiments:
[1] = 100 kPa, Liquid; for viscosity: Falling or rolling sphere viscometry
[2] = refractive index (Na D-line) (dimensionless); details: 298.15 K; 100 kPa; Liquid; Standard Abbe refractometry
[3] = refractive index (Na D-line) (dimensionless); xn = mol fraction of the nth substance listed; details: 298.15 K, 100 kPa, Liquid, Standard Abbe refractometry
[4] = xn = mol fraction of the nth substance listed; details: 100 kPa, Liquid; for electrical conductivity: Direct current cell with electrodes; for viscosity: Falling or rolling sphere viscometry, x2 = 0

`CN(C)C(=[NH2+])N(C)C.c1c[n-]cn1` [1,1,3,3-tetramethylguanidinium imidazol-1-ide] gave an electrical conductivity ([1]; 298.15 K, Direct current cell with electrodes) of 0.218 ± 0.002 S/m and a refractive index [2] of 1.4943 ± 0.0006.

For `CN(C)C(=[NH2+])N(C)C.c1c[n-]cn1` [1,1,3,3-tetramethylguanidinium imidazol-1-ide] + CCCCO, the refractive index ([3]; x1 = 0.0499) was 1.4074 ± 0.0005, the refractive index ([3]; x1 = 0.1004) was 1.4159 ± 0.0005 and the refractive index ([3]; x1 = 0.1999) was 1.4316 ± 0.0005. The refractive index ([3]; x1 = 0.2997) was 1.4443 ± 0.0005, the refractive index ([3]; x1 = 0.3985) was 1.4545 ± 0.0005 and the refractive index ([3]; x1 = 0.4997) was 1.4641 ± 0.0005. It also gave a refractive index ([3]; x1 = 0.6499) of 1.4748 ± 0.0006, a refractive index ([3]; x1 = 0.8002) of 1.4839 ± 0.0006 and a refractive index ([3]; x1 = 0.9004) of 1.4888 ± 0.0006. It also gave a refractive index ([3]; x1 = 1) of 1.4943 ± 0.0006.

Work on `CN(C)C(=[NH2+])N(C)C.c1c[n-]cn1` [1,1,3,3-tetramethylguanidinium imidazol-1-ide] + CCCO yielded a refractive index ([3]; x1 = 0.0499) of 1.3969 ± 0.0006, a refractive index ([3]; x1 = 0.0999) of 1.4086 ± 0.0005 and a refractive index ([3]; x1 = 0.2002) of 1.428 ± 0.0005. It also gave a refractive index ([3]; x1 = 0.2996) of 1.4423 ± 0.0005, a refractive index ([3]; x1 = 0.4002) of 1.4545 ± 0.0005 and a refractive index ([3]; x1 = 0.4988) of 1.4642 ± 0.0005. For the same compound, the refractive index ([3]; x1 = 0.6264) was 1.4742 ± 0.0006, the refractive index ([3]; x1 = 0.8001) was 1.4848 ± 0.0006 and the refractive index ([3]; x1 = 0.9006) was 1.4895 ± 0.0006. It also gave a refractive index ([3]; x1 = 1) of 1.4943 ± 0.0006.

Work on `CN(C)C(=[NH2+])N(C)C.c1c[n-]cn1` [1,1,3,3-tetramethylguanidinium imidazol-1-ide] + CCO yielded an electrical conductivity ([4]; 298.15 K, x1 = 0.01) of 0.0131 ± 0.001 S/m, an electrical conductivity ([4]; 298.15 K, x1 = 0.0299) of 0.0337 ± 0.001 S/m and an electrical conductivity ([4]; 298.15 K, x1 = 0.0897) of 0.092 ± 0.0013 S/m. It also gave an electrical conductivity ([4]; 298.15 K, x1 = 0.1197) of 0.12 ± 0.0014 S/m, an electrical conductivity ([4]; 298.15 K, x1 = 0.1499) of 0.139 ± 0.0015 S/m and an electrical conductivity ([4]; 298.15 K, x1 = 0.1797) of 0.16 ± 0.0017 S/m. The electrical conductivity ([4]; 298.15 K, x1 = 0.2001) was 0.166 ± 0.0017 S/m, the electrical conductivity ([4]; 298.15 K, x1 = 0.2195) was 0.173 ± 0.0018 S/m and the electrical conductivity ([4]; 298.15 K, x1 = 0.2398) was 0.179 ± 0.0018 S/m. It also gave an electrical conductivity ([4]; 298.15 K, x1 = 0.2602) of 0.185 ± 0.0019 S/m, an electrical conductivity ([4]; 298.15 K, x1 = 0.2996) of 0.199 ± 0.002 S/m and an electrical conductivity ([4]; 298.15 K, x1 = 0.3995) of 0.213 ± 0.002 S/m. It also gave an electrical conductivity ([4]; 298.15 K, x1 = 0.5) of 0.221 ± 0.002 S/m, an electrical conductivity ([4]; 298.15 K, x1 = 0.6467) of 0.227 ± 0.002 S/m and an electrical conductivity ([4]; 298.15 K, x1 = 0.801) of 0.229 ± 0.002 S/m. For the same compound, the electrical conductivity ([4]; 298.15 K, x1 = 0.8996) was 0.223 ± 0.002 S/m, the electrical conductivity ([4]; 298.15 K, x1 = 1) was 0.218 ± 0.002 S/m and the refractive index ([3]; x1 = 0.0483) was 1.3799 ± 0.0006. The refractive index ([3]; x1 = 0.0999) was 1.3983 ± 0.0006, the refractive index ([3]; x1 = 0.2003) was 1.4242 ± 0.0006 and the refractive index ([3]; x1 = 0.3001) was 1.4405 ± 0.0005. It also gave a refractive index ([3]; x1 = 0.3999) of 1.4547 ± 0.0005, a refractive index ([3]; x1 = 0.5) of 1.4652 ± 0.0006 and a refractive index ([3]; x1 = 0.643) of 1.4762 ± 0.0006. For the same compound, the refractive index ([3]; x1 = 0.7966) was 1.4854 ± 0.0006, the refractive index ([3]; x1 = 0.8987) was 1.4903 ± 0.0006 and the refractive index ([3]; x1 = 1) was 1.4943 ± 0.0006.

`CN(C)C(=[NH2+])N(C)C.c1c[n-]cn1` [1,1,3,3-tetramethylguanidinium imidazol-1-ide] + CO showed a refractive index ([3]; x1 = 0.0501) of 1.3631 ± 0.0008, a refractive index ([3]; x1 = 0.1005) of 1.389 ± 0.0006 and a refractive index ([3]; x1 = 0.1957) of 1.4222 ± 0.0006. It also gave a refractive index ([3]; x1 = 0.2953) of 1.4423 ± 0.0005, a refractive index ([3]; x1 = 0.393) of 1.4577 ± 0.0005 and a refractive index ([3]; x1 = 0.5005) of 1.4688 ± 0.0005. It also gave a refractive index ([3]; x1 = 0.6431) of 1.4791 ± 0.0006, a refractive index ([3]; x1 = 0.7815) of 1.4865 ± 0.0006 and a refractive index ([3]; x1 = 0.8994) of 1.4915 ± 0.0006. For the same compound, the refractive index ([3]; x1 = 1) was 1.4943 ± 0.0006.

With `CCCCO` [butan-1-ol] the refractive index [2] was 1.3975 ± 0.0005.

Compound `CCCCO` [butan-1-ol] + CN(C)C(=[NH2+])N(C)C.c1c[n-]cn1 has a refractive index ([3]; x2 = 0) of 1.3975 ± 0.0005.

Work on `CCO` [ethanol] yielded a refractive index [2] of 1.3598 ± 0.0005.

Compound `CCO` [ethanol] + CN(C)C(=[NH2+])N(C)C.c1c[n-]cn1 has a refractive index ([3]; x2 = 0) of 1.3598 ± 0.0005.

For `CO` [methanol], the refractive index [2] was 1.3267 ± 0.0005.

`CO` [methanol] + CN(C)C(=[NH2+])N(C)C.c1c[n-]cn1 showed a refractive index ([3]; x2 = 0) of 1.3267 ± 0.0005.

`CCCO` [propan-1-ol] showed a refractive index [2] of 1.3836 ± 0.0005.

Compound `CCCO` [propan-1-ol] + CN(C)C(=[NH2+])N(C)C.c1c[n-]cn1 has a refractive index ([3]; x2 = 0) of 1.3836 ± 0.0005.

For `O` [water], the viscosity ([1]; 293.15 K) was 0.997 ± 0.041 mPa·s, the viscosity ([1]; 298.15 K) was 0.886 ± 0.036 mPa·s and the viscosity ([1]; 303.15 K) was 0.799 ± 0.033 mPa·s. The viscosity ([1]; 308.15 K) was 0.726 ± 0.03 mPa·s, the viscosity ([1]; 313.15 K) was 0.665 ± 0.027 mPa·s and the refractive index [2] was 1.3331 ± 0.0005.

`O` [water] + CN(C)C(=[NH2+])N(C)C.c1c[n-]cn1 gave a viscosity ([4]; 293.15 K) of 0.997 ± 0.041 mPa·s, a viscosity ([4]; 298.15 K) of 0.886 ± 0.036 mPa·s and a viscosity ([4]; 303.15 K) of 0.799 ± 0.033 mPa·s. The viscosity ([4]; 308.15 K) was 0.726 ± 0.03 mPa·s, the viscosity ([4]; 313.15 K) was 0.665 ± 0.027 mPa·s and the refractive index ([3]; x2 = 0) was 1.3331 ± 0.0005.
